In the oligonucleotide strings, read from the 5' end, every base follows the letter of its sugar. An asterisk marks phosphorothioate; unmarked linkages are phosphodiester. Other units and linkages are bracketed, terminal groups are in braces. A string of capitals states the bases alone. e = 2'-O-(2-methoxyethyl) (MOE); [5mC] = 5-methylcytosine; d = 2'-deoxy (DNA)
Test system: human apolipoprotein B mRNA
Assay: Inhibition of human apolipoprotein B mRNA levels in HepG2 cells, quantitative real-time PCR
Type: cell-based
Conditions: HepG2 cells treated with 150 nM of compound; averages from two experiments; quantitative real-time PCR
Method: The human hepatoblastoma cell line HepG2 was obtained from the American Type Culture Collection (Manassas, Va.). HepG2 cells were routinely cultured in Eagle's MEM supplemented with 10% fetal calf serum, non-essential amino acids, and 1 mM sodium pyruvate (Gibco/Life Technologies, Gaithersburg, Md.). Cells were routinely passaged by trypsinization and dilution when they reached 90% confluence. Cells were seeded into 96-well plates (Falcon-Primaria #3872) at a density of 7000 cells/well for use in RT-PCR analysis.
When cells reached 80% confluency, they were treated with oligonucleotide. For cells grown in 96-well plates, wells were washed once with 200 μL OPTI-MEM™-1 reduced-serum medium (Gibco BRL) and then treated with 130 μL of OPTI-MEM™-1 containing 3.75 μg/mL LIPOFECTIN™ (Gibco BRL) and the desired concentration of oligonucleotide. After 4-7 hours of treatment, the medium was replaced with fresh medium. Cells were harvested 16-24 hours after oligonucleotide treatment.
Quantitation of apolipoprotein B mRNA levels was determined by real-time quantitative PCR using the ABI PRISM™ 7700 Sequence Detection System (PE-Applied Biosystems, Foster City, Calif.) according to manufacturer's instructions. This is a closed-tube, non-gel-based, fluorescence detection system which allows high-throughput quantitation of polymerase chain reaction (PCR) products in real-time. As opposed to standard PCR, in which amplification products are quantitated after the PCR is completed, products in real-time quantitative PCR are quantitated as they accumulate. This is accomplished by including in the PCR reaction an oligonucleotide probe that anneals specifically between the forward and reverse PCR primers, and contains two fluorescent dyes. A reporter dye (e.g., JOE, FAM, or VIC, obtained from either Operon Technologies Inc., Alameda, Calif. or PE-Applied Biosystems, Foster City, Calif.) is attached to the 5′ end of the probe and a quencher dye (e.g., TAMRA, obtained from either Operon Technologies Inc., Alameda, Calif. or PE-Applied Biosystems, Foster City, Calif.) is attached to the 3′ end of the probe. When the probe and dyes are intact, reporter dye emission is quenched by the proximity of the 3′ quencher dye. During amplification, annealing of the probe to the target sequence creates a substrate that can be cleaved by the 5′-exonuclease activity of Taq polymerase. […] With each cycle, additional reporter dye molecules are cleaved from their respective probes, and the fluorescence intensity is monitored at regular intervals by laser optics built into the ABI PRISM™ 7700 Sequence Detection System. In each assay, a series of parallel reactions containing serial dilutions of mRNA from untreated control samples generates a standard curve that is used to quantitate the percent inhibition after antisense oligonucleotide treatment of test samples.
PCR reagents were obtained from PE-Applied Biosystems, Foster City, Calif. RT-PCR reactions were carried out by adding 25 μL PCR cocktail (1× TAQMAN™ buffer A, 5.5 mM MgCl2, 300 μM each of DATP, dCTP and dGTP, 600 μM of dUTP, 100 nM each of forward primer, reverse primer, and probe, 20 Units RNAse inhibitor, 1.25 Units AMPLITAQ GOLD™, and 12.5 Units MuLV reverse transcriptase) to 96 well plates containing 25 μL total RNA solution. The RT reaction was carried out by incubation for 30 minutes at 48° C. Following a 10 minute incubation at 95° C. to activate the AMPLITAQ GOLD™, 40 cycles of a two-step PCR protocol were carried out: 95° C. for 15 seconds (denaturation) followed by 60° C. for 1.5 minutes (annealing/extension).
Gene target quantities obtained by real time RT-PCR are normalized using either the expression level of GAPDH, a gene whose expression is constant, or by quantifying total RNA using RiboGreen™ (Molecular Probes, Inc. Eugene, Oreg.). GAPDH expression is quantified by real time RT-PCR, by being run simultaneously with the target, multiplexing, or separately. […]

| Substance | % INHIB (inhibition of human apolipoprotein B mRNA levels) |
| --- | --- |
| 270987 (antisense e[5mC]*e[5mC]*eT*e[5mC]*e[5mC]*dA*dG*d[5mC]*dT*d[5mC]*dA*dA*d[5mC]*d[5mC]*dT*eT*eG*e[5mC]*eA*eG) [compound 270987] | 0% |
| 270988 (antisense eG*eG*eG*eT*eT*dG*dA*dA*dG*d[5mC]*d[5mC]*dA*dT*dA*d[5mC]*eA*e[5mC]*e[5mC]*eT*e[5mC]) [compound 270988] | 6% |
| 270989 (antisense e[5mC]*e[5mC]*eA*eG*e[5mC]*dT*dT*dG*dA*dG*d[5mC]*dT*d[5mC]*dA*dT*eA*e[5mC]*e[5mC]*eT*eG) [compound 270989] | 64% |
| 270990 (antisense e[5mC]*e[5mC]*e[5mC]*eT*e[5mC]*dT*dT*dG*dA*dT*dG*dT*dT*d[5mC]*dA*eG*eG*eA*eT*eG) [compound 270990] | 42% |
| 270991 (antisense eG*eA*eG*e[5mC]*eA*dG*dT*dT*dT*d[5mC]*d[5mC]*dA*dT*dA*d[5mC]*eA*e[5mC]*eG*eG*eT) [compound 270991] | 21% |
| 270992 (antisense e[5mC]*e[5mC]*e[5mC]*eT*eT*d[5mC]*d[5mC]*dT*d[5mC]*dG*dT*d[5mC]*dT*dT*dG*eA*e[5mC]*eG*eG*eT) [compound 270992] | 8% |
| 270993 (antisense eT*eT*eG*eA*eA*dG*d[5mC]*dG*dA*dT*d[5mC]*dA*d[5mC]*dA*d[5mC]*eT*eG*e[5mC]*e[5mC]*e[5mC]) [compound 270993] | 69% |
| 270994 (antisense eG*e[5mC]*e[5mC]*eT*eT*dT*dG*dA*dT*dG*dA*dG*dA*dG*d[5mC]*eA*eA*eG*eT*eG) [compound 270994] | 51% |
| 270995 (antisense eT*e[5mC]*e[5mC]*eT*e[5mC]*dT*dT*dA*dG*d[5mC]*dG*dT*d[5mC]*d[5mC]*dA*eG*eT*eG*eT*eG) [compound 270995] | 40% |
| 270996 (antisense e[5mC]*e[5mC]*eT*e[5mC]*eT*d[5mC]*dA*dG*d[5mC]*dT*d[5mC]*dA*dG*dT*dA*eA*e[5mC]*e[5mC]*eA*eG) [compound 270996] | 0% |
| 270997 (antisense eG*e[5mC]*eA*e[5mC]*eT*dG*dA*dG*dG*d[5mC]*dT*dG*dT*d[5mC]*d[5mC]*eA*e[5mC]*eA*e[5mC]*eT) [compound 270997] | 24% |
| 270998 (antisense e[5mC]*eG*e[5mC]*eT*eG*dA*dT*d[5mC]*d[5mC]*d[5mC]*dT*d[5mC]*dG*d[5mC]*d[5mC]*eA*eT*eG*eT*eT) [compound 270998] | 1% |
| 270999 (antisense eG*eT*eT*eG*eA*d[5mC]*d[5mC]*dG*d[5mC]*dG*dT*dG*dG*d[5mC]*dT*e[5mC]*eA*eG*e[5mC]*eG) [compound 270999] | 76% |
| 271000 (antisense eG*e[5mC]*eA*eG*e[5mC]*dT*d[5mC]*d[5mC]*dT*dG*dG*dG*dT*d[5mC]*d[5mC]*e[5mC]*eT*eG*eT*eA) [compound 271000] | 22% |
| 271001 (antisense e[5mC]*e[5mC]*e[5mC]*eA*eT*dG*dG*dT*dA*dG*dA*dA*dT*dT*dT*eG*eG*eA*e[5mC]*eA) [compound 271001] | 53% |
| 271002 (antisense eA*eA*eT*e[5mC]*eT*d[5mC]*dG*dA*dT*dG*dA*dG*dG*dT*d[5mC]*eA*eG*e[5mC]*eT*eG) [compound 271002] | 48% |
| 271003 (antisense eG*eA*e[5mC]*eA*e[5mC]*d[5mC]*dA*dT*d[5mC]*dA*dG*dG*dA*dA*d[5mC]*eT*eT*eG*eA*e[5mC]) [compound 271003] | 46% |

| Substance | % INHIB (inhibition of human apolipoprotein B mRNA levels) |
| --- | --- |
| 271004 (antisense eG*e[5mC]*eT*e[5mC]*e[5mC]*dT*d[5mC]*dT*d[5mC]*d[5mC]*d[5mC]*dA*dA*dG*dA*eT*eG*e[5mC]*eG*eG) [compound 271004] | 10% |
| 271005 (antisense eG*eG*e[5mC]*eA*e[5mC]*d[5mC]*d[5mC]*dA*dT*d[5mC]*dA*dG*dA*dA*dG*e[5mC]*eA*eG*e[5mC]*eT) [compound 271005] | 32% |
| 271006 (antisense eA*eG*eT*e[5mC]*e[5mC]*dG*dG*dA*dA*dT*dG*dA*dT*dG*dA*eT*eG*e[5mC]*e[5mC]*e[5mC]) [compound 271006] | 42% |
| 271007 (antisense e[5mC]*eT*eG*eA*eG*d[5mC]*dA*dG*d[5mC]*dT*dT*dG*dA*d[5mC]*dT*eG*eG*eT*e[5mC]*eT) [compound 271007] | 26% |
| 271008 (antisense e[5mC]*e[5mC]*e[5mC]*eG*eG*dT*d[5mC]*dA*dG*d[5mC]*dG*dG*dA*dT*dA*eG*eT*eA*eG*eG) [compound 271008] | 37% |
| 271010 (antisense eT*eG*eT*e[5mC]*eA*d[5mC]*dA*dA*d[5mC]*dT*dT*dA*dG*dG*dT*eG*eG*e[5mC]*e[5mC]*e[5mC]) [compound 271010] | 57% |
| 271011 (antisense eG*eT*e[5mC]*eT*eG*dG*d[5mC]*dA*dA*dT*d[5mC]*d[5mC]*d[5mC]*dA*dT*eG*eT*eT*e[5mC]*eT) [compound 271011] | 51% |
| 271012 (antisense e[5mC]*e[5mC]*e[5mC]*eA*e[5mC]*dA*dG*dA*d[5mC]*dT*dT*dG*dA*dA*dG*eT*eG*eG*eA*eG) [compound 271012] | 55% |
| 271013 (antisense eG*eA*eA*e[5mC]*eT*dG*d[5mC]*d[5mC]*d[5mC]*dA*dT*d[5mC]*dA*dA*dT*e[5mC]*eT*eT*eG*eA) [compound 271013] | 19% |
| 271014 (antisense e[5mC]*e[5mC]*e[5mC]*eA*eG*dA*dG*dA*dG*dG*d[5mC]*d[5mC]*dA*dA*dG*e[5mC]*eT*e[5mC]*eT*eG) [compound 271014] | 54% |
| 271015 (antisense eT*eG*eT*eG*eT*dT*d[5mC]*d[5mC]*d[5mC]*dT*dG*dA*dA*dG*d[5mC]*eG*eG*e[5mC]*e[5mC]*eA) [compound 271015] | 43% |
| 271016 (antisense eA*e[5mC]*e[5mC]*e[5mC]*eA*dG*dA*dA*dT*d[5mC]*dA*dT*dG*dG*d[5mC]*e[5mC]*eT*eG*eA*eT) [compound 271016] | 19% |
| 271017 (antisense eG*eG*eT*eG*e[5mC]*d[5mC]*dT*dG*dT*d[5mC]*dT*dG*d[5mC]*dT*d[5mC]*eA*eG*e[5mC]*eT*eG) [compound 271017] | 30% |
| 271018 (antisense eA*eT*eG*eT*eG*dA*dA*dA*d[5mC]*dT*dT*dG*dT*d[5mC]*dT*e[5mC]*eT*e[5mC]*e[5mC]*e[5mC]) [compound 271018] | 44% |
| 271019 (antisense eT*eA*eT*eG*eT*d[5mC]*dT*dG*d[5mC]*dA*dG*dT*dT*dG*dA*eG*eA*eT*eA*eG) [compound 271019] | 15% |
| 271020 (antisense eT*eT*eG*eA*eA*dT*d[5mC]*d[5mC]*dA*dG*dG*dA*dT*dG*d[5mC]*eA*eG*eT*eA*e[5mC]) [compound 271020] | 35% |
